The target in data set [1] is T1, human FXR alpha ligand binding domain (Homo sapiens, UniProt Q96RI1).
T1 construct: made in house; host or cells: E. coli BL21(DE3), vector pDEST15
T1 sequence (Q96RI1 187-472 isoform Q96RI1-2): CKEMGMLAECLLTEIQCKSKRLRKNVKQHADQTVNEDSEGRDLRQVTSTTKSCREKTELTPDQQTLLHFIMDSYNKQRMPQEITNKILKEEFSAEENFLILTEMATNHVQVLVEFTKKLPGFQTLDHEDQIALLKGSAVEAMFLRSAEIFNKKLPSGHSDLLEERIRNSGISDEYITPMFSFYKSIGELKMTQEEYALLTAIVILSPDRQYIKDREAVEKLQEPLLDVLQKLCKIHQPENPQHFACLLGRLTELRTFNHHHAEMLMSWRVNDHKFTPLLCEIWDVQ
The data set is described as follows: FRET activity assay (ligand mediated cofactor peptide interaction, LANCE). Type of data set: biochemical. The conditions noted are these: potency range. As for the experimental part:
Determination of a ligand mediated cofactor peptide interaction to quantify ligand binding to the nuclear receptor FXR was performed as follows: Preparation of human FXR alpha ligand binding domain: The human FXRalpha LBD was expressed in E. coli strain BL21(DE3) as an N-terminally GST tagged fusion protein. The DNA encoding the FXR ligand binding domain was cloned into vector pDEST15 (Invitrogen). Expression was under control of an IPTG inducible T7 promoter. The amino acid boundaries of the ligand binding domain were amino acids 187-472 of Database entry NM_005123 (RefSeq). Expression and purification of the FXR-LBD: An overnight preculture of a transformed E. coli strain was diluted 1:20 in LB-Ampicillin medium and grown at 30° C. to an optical density of OD600=0.4-0.6. Gene expression was then induced by addition of 0.5 mM IPTG. Cells were incubated an additional 6 h at 30° C., 180 rpm. Cells were collected by centrifugation (7000×g, 7 min, room temperature). Per liter of original cell culture, cells were resuspended in 10 mL lysis buffer (50 mM Glucose, 50 mM Tris pH 7.9, 1 mM EDTA and 4 mg/mL lysozyme) and left on ice for 30 min. Cells were then subjected to sonication and cell debris removed via centrifugation (22000×g, 30 min, 4° C.). Per 10 mL of supernatant 0.5 mL prewashed Glutathione 4B sepharose slurry (Qiagen) was added and the suspension kept slowly rotating for 1 h at 4° C. Glutathione 4B sepharose beads were pelleted by centrifugation (2000×g, 15 sec, 4° C.) and washed twice in wash buffer (25 mM Tris, 50 mM KCl, 4 mM MgCl2 and 1M NaCl). The pellet was resuspended in 3 mL elution buffer per liter of original culture (elution buffer: 20 mM Tris, 60 mM KCl, 5 mM MgCl2 and 80 mM glutathione added immediately prior to use as powder). The suspension was left rotating for 15 min at 4° C., the beads pelleted and eluted again with half the volume of elution buffer than the first time. The eluates were pooled and dialysed overnight in 20 mM Hepes buffer (pH 7.5) containing 60 mM KCl, 5 mM MgCl2 as well as 1 mM dithiothreitol and 10% (v/v) glycerol. The protein was analysed by SDS-Page.
The method measures the ability of putative ligands to modulate the interaction between the purified bacterial expressed FXR ligand binding domain (LBD) and a synthetic biotinylated peptide based on residues 676-700 of SRC-1 (LCD2, 676-700). […] The ligand binding domain (LBD) of FXR was expressed as fusion protein with GST in BL-21 cells using the vector pDEST15. Cells were lysed by sonication, and the fusion proteins purified over glutathione sepharose (Pharmacia) according to the manufacturers instructions. For screening of compounds for their influence on the FXR-peptide interaction, the Perkin Elmer LANCE technology was applied. This method relies on the binding dependent energy transfer from a donor to an acceptor fluorophor attached to the binding partner of interest. For ease of handling and reduction of background from compound fluorescence LANCE technology makes use of generic fluorophore labels and time resolved detection Assays were done in a final volume of 25 μL in a 384 well plate, in a Tris-based buffer (20 mM Tris-HCl pH 7.5; 60 mM KCl, 5 mM MgCl2; 35 ng/μL BSA), containing 20-60 ng/well recombinantly expressed FXR-LBD fused to GST, 200-600 nM N-terminally biotinylated peptide, representing SRC1 aminoacids 676-700, 200 ng/well Streptavidin-xIAPC conjugate (Prozyme) and 6-10 ng/well Eu W1024—antiGST (Perkin Elmer). DMSO content of the samples was kept at 1%. After generation of the assay mix and diluting the potentially FXR modulating ligands, the assay was equilibrated for one hour in the dark at room temperature in FIA-plates black 384 well (Greiner). The LANCE signal was detected by a Perkin Elmer VICTOR2V™ Multilabel Counter. The results were visualized by plotting the ratio between the emitted light at 665 and 615 nm.
Background: In TR-FRET formats the signal depends on donor and acceptor labels being close together.

Data set [2] can be described thus: Pharmacokinetics in monkeys after oral administration 12 mg/kg. Type of data set: in vivo, Cynomolgus monkeys (Macacca mulatta). The conditions noted are these: oral 12 mg/kg, Avg; for AUC(0-inf) / AUC(0-t) / Cmax / Tmax / half-life / MRT last / Vd/F: Cynomolgus, cynomolgus monkey, plasma; for MRT last: read-out: MRT0-t (converted); for Vd/F: read-out: Vz/F. As for the experimental part: Compounds were applied perorally by gavage at 5 mg/kg each and by i.v. Injection at 1 mg/kg each to male 12 weeks old C57BI/6J or Sprague Dawley rats and plasma concentrations of the test items were determined by LC-MS/MS after time points as indicated. In the case of Cynomolgus monkeys ([…]), the dose was adjusted to 12 mg/kg p.o., no i.v. injection was given (FIG. 1a, 1b and Table 2).
A solution of 2.5 mg/mL of each test item was produced by diluting them in the vehicle, 0.5% Hydroxypropyl-Methylcellulose (w/v) in 20 mM phosphate buffered saline pH 7.4. The solutions were stirred overnight at room temperature and heated to 40° C. for 10 minutes, resulting in fully homogenous suspension. The application was performed by administrating the solution perorally to the mice, with an application volume of 5 mL/kg. For each time point three mice or rats were used. In case of the Cynomolgus monkeys blood samples were obtained by repeated vein puncture. Blood samples were treated with L1-heparin during collection procedure and stored on ice until centrifugation at 645 g (5 min, 4° C.). Plasma was harvested and kept at −20° C. until being assayed. To 50 μL of plasma sample […] acetonitrile containing an internal standard was added. Samples were vigorously shaken and centrifuged for 10 minutes at 6000 g and 20° C. An aliquot of the particle-free supernatant was transferred to 200 μL sampler vials and subsequently subjected to LC MS/MS for quantification.

Consider `O=C(O)c1ccc(C2CC2c2ccc(OCc3c(-c4c(Cl)cccc4Cl)noc3C3CC3)cc2Cl)cc1` (racemic) [Example 12, 4-(2-(2-chloro-4-((5-cyclopropyl-3-(2,6-dichlorophenyl)isoxazol-4-yl)methoxy)phenyl)cyclopropyl)benzoic acid], for which the EC50 (in general, the concentration that produces a half-maximal response) in data set [1] was over 100 nM. In addition, in data set [2], the total exposure AUC(0-inf) (in general, total exposure, with the tail of the curve extrapolated) is 15100 ng·h/mL; the AUC(0-t) (usually exposure summed from dosing to a finite time, without extrapolation to infinity) is 14500 ng·h/mL; the maximum concentration (Cmax) (in general, the peak of the concentration-time curve) came to 2220 ng/mL; the time to peak (Tmax) (commonly the time from dosing to the highest level) was 2.92 h. In addition, in data set [2], the half-life (as a rule, the time in which the quantity being followed falls by half) came out at 4.54 h; the MRT last was 6.11 h; the Vd/F is 5.19 L/kg; the CLz/F turned out to be 13 mL/min/kg.

As for `O=C(O)c1cccc(C2CC2c2ccc(OCc3c(-c4c(Cl)cccc4Cl)noc3C3CC3)cc2Cl)c1` (racemic) [Example 4, 3-(2-(2-chloro-4-((5-cyclopropyl-3-(2,6-dichlorophenyl)isoxazol-4-yl)methoxy)phenyl)-cyclopropyl)benzoic acid], in data set [1], the EC50 lay within 10 to 100 nM. Besides, in data set [2], the AUC(0-inf) was 30700 ng·h/mL, the AUC(0-t) is 30500 ng·h/mL, the peak level (Cmax) was 7340 ng/mL and the Tmax is 1.42 h. In data set [2], the half-life came to 2.92 h, the MRT last was 4.31 h, the Vd/F stood at 1.93 L/kg and the CLz/F is 7 mL/min/kg.
